Data as given in patent US9695155B2, “Herbicidal substituted pyrimidinyloxy benzene compounds” (E. I. DU PONT DE NEMOURS AND COMPANY, priority 2013, dated 2017).

What was measured:
johnsongrass [1] = test: Test C preemergence; type: in vivo, Sorghum halepense; conditions: for Johnsongrass plant response rating: preemergence; for Plant response rating, Johnsongrass: Preemergence, 31 g ai/ha, scale 0 to 100, 0 no effect, 100 complete control
In short: (§1)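 Greenhouse herbicide screen. Pre: seeded loam/sand, sprayed at planting. Post: 1–4 leaf plants (2–18 cm) in peat-based mix. Formulation: solvent mixture + surfactant, non-phytotoxic. Readout: visual % control vs untreated, 13–15 d; dash = not tested.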

ragweed = test: Test C preemergence; type: in vivo, Ambrosia elatior; conditions: for Ragweed plant response rating: preemergence; for Plant response rating, Ragweed: Preemergence, 31 g ai/ha, scale 0 to 100, 0 no effect, 100 complete control
In short: as §1

pigweed [2] = test: Test A postemergence; type: in vivo, Amaranthus retroflexus; conditions: 0 to 100 scale where 0 is no effect and 100 is complete control
In short: (§2)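 Injury scores run from 0, no effect, to 100, complete control, judged by eye against untreated plants roughly 10 days after treatment. Chemicals carried a surfactant in a non-phytotoxic solvent and went onto loam–sand soil preemergence or onto one- to two-leaf seedlings postemergence.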

velvetleaf = test: Test C postemergence; type: in vivo, Abutilon theophrasti; conditions: for Plant response rating, Velvetleaf: scale 0 to 100 (0 no effect, 100 complete control)
In short: as §1

corn = test: Test C postemergence; type: in vivo, Zea mays
In short: as §1

giant foxtail [3] = test: Test C preemergence; type: in vivo, Setaria faberii; conditions: for Foxtail, Giant plant response rating: preemergence; for Plant response rating, Foxtail, Giant: Preemergence, 31 g ai/ha, scale 0 to 100, 0 no effect, 100 complete control
In short: as §1

oilseed rape = test: Test C postemergence; type: in vivo, Brassica napus; conditions: for Plant response rating, Oilseed Rape: scale 0 to 100 (0 no effect, 100 complete control)
In short: as §1

waterhemp = test: Test C postemergence; type: in vivo, Amaranthus rudis; conditions: for Plant response rating, Waterhemp: scale 0 to 100 (0 no effect, 100 complete control)
In short: as §1

large (Lg) crabgrass = test: Test C postemergence; type: in vivo, Digitaria sanguinalis
In short: as §1

johnsongrass [4] = test: Test C postemergence; type: in vivo, Sorghum halepense
In short: as §1

giant foxtail [5] = test: Test A postemergence; type: in vivo, Setaria faberii; conditions: 0 to 100 scale where 0 is no effect and 100 is complete control
In short: as §2

blackgrass = test: Test C preemergence; type: in vivo, Alopecurus myosuroides; conditions: for Blackgrass plant response rating: preemergence; for Plant response rating, Blackgrass: Preemergence, 31 g ai/ha, scale 0 to 100, 0 no effect, 100 complete control
In short: as §1

pigweed [6] = test: Test A preemergence; type: in vivo, Amaranthus retroflexus; conditions: for Plant response rating, Pigweed: 125 g ai/ha; for Pigweed plant response rating: 500 g ai/ha
In short: as §2

[7] = 16 g ai/ha, scale 0 to 100 (0 no effect, 100 complete control)
[8] = 62 g ai/ha, scale 0 (no effect) to 100 (complete control)
[9] = 125 g ai/ha, scale 0 (no effect) to 100 (complete control)
[10] = 16 g ai/ha, postemergence, 0 is no effect, 100 is complete control
[11] = 125 g ai/ha, postemergence, visual rating
[12] = 125 g ai/ha, postemergence, visual rating, scale 0 to 100 (0 no effect, 100 complete control)
[13] = Postemergence, 62 g ai/ha, scale 0 to 100 (0 no effect, 100 complete control)
[14] = 0 to 100 scale where 0 is no effect and 100 is complete control
[15] = Postemergence, 31 g ai/ha, 13 to 15 days
[16] = 16 g ai/ha, postemergence, visual rating, scale 0 to 100 (0 no effect, 100 complete control), 13 to 15 days
[17] = Postemergence, 31 g ai/ha, scale 0 to 100 (0 no effect, 100 complete control), 13 to 15 days

**Q.** Which “Johnsongrass plant response rating” value (johnsongrass [1]; [7]) does the source give for `Clc1cnc(Oc2cccc(Br)c2-n2cc(Br)nn2)nc1` [Compound 129] here?
**A.** 0

**Q.** And the “Johnsongrass plant response rating” value (johnsongrass [1]; [8])?
**A.** 40

**Q.** What about the “Johnsongrass plant response rating” value (johnsongrass [1]; [9]) of the same molecule?
**A.** 90

**Q.** What about the “Plant response rating, Johnsongrass” value (johnsongrass [1]) of the same molecule?
**A.** 10

**Q.** And the “Ragweed plant response rating” value (ragweed; [7])?
**A.** 0

**Q.** And the “Ragweed plant response rating” value (ragweed; [8])?
**A.** 60

**Q.** What about the “Ragweed plant response rating” value (ragweed; [9]) of the same molecule?
**A.** 85

**Q.** What about the “Plant response rating, Ragweed” value (ragweed) of the same molecule?
**A.** 20

**Q.** What about the “Pigweed plant response rating” value (pigweed [2]; 125 g ai/ha) of the same molecule?
**A.** 100

**Q.** What about the “Plant response rating, Pigweed” value (pigweed [2]; 500 g ai/ha) of the same molecule?
**A.** 100

**Q.** What about the “Plant response rating (0 to 100), Velvetleaf” value (velvetleaf; [10]) of the same molecule?
**A.** 15

**Q.** What about the “Plant response rating, Velvetleaf” value (velvetleaf; [11]) of the same molecule?
**A.** 40

**Q.** And the “Plant response rating, Velvetleaf” value (velvetleaf; Postemergence, 62 g ai/ha)?
**A.** 40

**Q.** What about the “Plant response rating (0 to 100), Corn” value (corn; [10]) of the same molecule?
**A.** 5

**Q.** And the “Plant response rating, Corn” value (corn; [12])?
**A.** 15

**Q.** And the “Plant response rating, Corn” value (corn; [13])?
**A.** 10

**Q.** What about the “Foxtail, Giant plant response rating” value (giant foxtail [3]; [7]) of the same molecule?
**A.** 0

**Q.** What about the “Foxtail, Giant plant response rating” value (giant foxtail [3]; [8]) of the same molecule?
**A.** 100

**Q.** What about the “Foxtail, Giant plant response rating” value (giant foxtail [3]; [9]) of the same molecule?
**A.** 100

**Q.** What about the “Plant response rating, Foxtail, Giant” value (giant foxtail [3]) of the same molecule?
**A.** 80

**Q.** What about the “Plant response rating (0 to 100), Oilseed Rape” value (oilseed rape; [10]) of the same molecule?
**A.** 5

**Q.** What about the “Plant response rating, Oilseed Rape” value (oilseed rape; [11]) of the same molecule?
**A.** 60

**Q.** What about the “Plant response rating, Oilseed Rape” value (oilseed rape; Postemergence, 62 g ai/ha) of the same molecule?
**A.** 60

**Q.** What about the “Plant response rating (0 to 100), Waterhemp” value (waterhemp; [10]) of the same molecule?
**A.** 65

**Q.** And the “Plant response rating, Waterhemp” value (waterhemp; [11])?
**A.** 85

**Q.** And the “Plant response rating, Waterhemp” value (waterhemp; Postemergence, 62 g ai/ha)?
**A.** 65

**Q.** What about the “Plant response rating (0 to 100), Crabgrass, Large” value (large (Lg) crabgrass; [10]) of the same molecule?
**A.** 5

**Q.** And the “Plant response rating, Crabgrass, Large” value (large (Lg) crabgrass; [12])?
**A.** 10

**Q.** What about the “Plant response rating, Crabgrass, Large” value (large (Lg) crabgrass; [13]) of the same molecule?
**A.** 5

**Q.** And the “Plant response rating (0 to 100), Johnsongrass” value (johnsongrass [4]; [10])?
**A.** 5

**Q.** What about the “Plant response rating, Johnsongrass” value (johnsongrass [4]; [12]) of the same molecule?
**A.** 5

**Q.** And the “Plant response rating, Johnsongrass” value (johnsongrass [4]; [13])?
**A.** 5

**Q.** What about the “Foxtail, Giant plant response rating” value (giant foxtail [5]; 125 g ai/ha) of the same molecule?
**A.** 90

**Q.** What about the “Plant response rating, Foxtail, Giant” value (giant foxtail [5]; 500 g ai/ha) of the same molecule?
**A.** 100

**Q.** And the “Blackgrass plant response rating” value (blackgrass; [7])?
**A.** 0

**Q.** And the “Blackgrass plant response rating” value (blackgrass; [8])?
**A.** 5

**Q.** What about the “Blackgrass plant response rating” value (blackgrass; [9]) of the same molecule?
**A.** 90

**Q.** And the “Plant response rating, Blackgrass” value (blackgrass)?
**A.** 50

**Q.** What about the “Plant response rating, Pigweed” value (pigweed [6]; [14]) of the same molecule?
**A.** 100

**Q.** What about the “Pigweed plant response rating” value (pigweed [6]; [14]) of the same molecule?
**A.** 100

**Q.** How did the “Johnsongrass plant response rating” value (johnsongrass [1]; [7]) turn out when `N#Cc1cccc(Oc2ncc(Br)cn2)c1-n1cc(I)cn1` [Compound 88] was run?
**A.** 0

**Q.** What about the “Johnsongrass plant response rating” value (johnsongrass [1]; [8]) of the same molecule?
**A.** 40

**Q.** And the “Johnsongrass plant response rating” value (johnsongrass [1]; [9])?
**A.** 85

**Q.** And the “Plant response rating, Johnsongrass” value (johnsongrass [1])?
**A.** 0

**Q.** And the “Ragweed plant response rating” value (ragweed; [7])?
**A.** 0

**Q.** And the “Ragweed plant response rating” value (ragweed; [8])?
**A.** 5

**Q.** And the “Ragweed plant response rating” value (ragweed; [9])?
**A.** 60

**Q.** And the “Plant response rating, Ragweed” value (ragweed)?
**A.** 0

**Q.** What about the “Plant response rating, Pigweed” value (pigweed [2]; 125 g ai/ha) of the same molecule?
**A.** 100

**Q.** What about the “Plant response rating, Pigweed” value (pigweed [2]; 500 g ai/ha) of the same molecule?
**A.** 100

**Q.** And the “Plant response rating (0 to 100), Velvetleaf” value (velvetleaf; 125 g ai/ha, postemergence)?
**A.** 55

**Q.** And the “Plant response rating, Velvetleaf” value (velvetleaf; [15])?
**A.** 35

**Q.** And the “Plant response rating, Velvetleaf” value (velvetleaf; Postemergence, 62 g ai/ha)?
**A.** 40

**Q.** And the “Corn plant response rating” value (corn; [16])?
**A.** 5

**Q.** What about the “Plant response rating (0 to 100), Corn” value (corn; 125 g ai/ha, postemergence) of the same molecule?
**A.** 10

**Q.** And the “Plant response rating, Corn” value (corn; [17])?
**A.** 10

**Q.** What about the “Plant response rating, Corn” value (corn; [13]) of the same molecule?
**A.** 10

**Q.** And the “Foxtail, Giant plant response rating” value (giant foxtail [3]; [7])?
**A.** 5

**Q.** What about the “Foxtail, Giant plant response rating” value (giant foxtail [3]; [8]) of the same molecule?
**A.** 98

**Q.** What about the “Foxtail, Giant plant response rating” value (giant foxtail [3]; [9]) of the same molecule?
**A.** 100

**Q.** What about the “Plant response rating, Foxtail, Giant” value (giant foxtail [3]) of the same molecule?
**A.** 65

**Q.** What about the “Plant response rating (0 to 100), Oilseed Rape” value (oilseed rape; 125 g ai/ha, postemergence) of the same molecule?
**A.** 45

**Q.** And the “Plant response rating, Oilseed Rape” value (oilseed rape; [15])?
**A.** 50

**Q.** What about the “Plant response rating, Oilseed Rape” value (oilseed rape; Postemergence, 62 g ai/ha) of the same molecule?
**A.** 55

**Q.** What about the “Plant response rating (0 to 100), Waterhemp” value (waterhemp; 125 g ai/ha, postemergence) of the same molecule?
**A.** 90

**Q.** And the “Plant response rating, Waterhemp” value (waterhemp; [15])?
**A.** 75

**Q.** What about the “Plant response rating, Waterhemp” value (waterhemp; Postemergence, 62 g ai/ha) of the same molecule?
**A.** 85

**Q.** What about the “Crabgrass, Large plant response rating” value (large (Lg) crabgrass; [16]) of the same molecule?
**A.** 5

**Q.** And the “Plant response rating (0 to 100), Crabgrass, Large” value (large (Lg) crabgrass; 125 g ai/ha, postemergence)?
**A.** 10

**Q.** And the “Plant response rating, Crabgrass, Large” value (large (Lg) crabgrass; [17])?
**A.** 5

**Q.** What about the “Plant response rating, Crabgrass, Large” value (large (Lg) crabgrass; [13]) of the same molecule?
**A.** 10

**Q.** What about the “Johnsongrass plant response rating” value (johnsongrass [4]; [16]) of the same molecule?
**A.** 0

**Q.** And the “Plant response rating (0 to 100), Johnsongrass” value (johnsongrass [4]; 125 g ai/ha, postemergence)?
**A.** 10

**Q.** And the “Plant response rating, Johnsongrass” value (johnsongrass [4]; [17])?
**A.** 0

**Q.** And the “Plant response rating, Johnsongrass” value (johnsongrass [4]; [13])?
**A.** 5

**Q.** And the “Plant response rating, Foxtail, Giant” value (giant foxtail [5]; 125 g ai/ha)?
**A.** 50

**Q.** What about the “Plant response rating, Foxtail, Giant” value (giant foxtail [5]; 500 g ai/ha) of the same molecule?
**A.** 80

**Q.** And the “Blackgrass plant response rating” value (blackgrass; [7])?
**A.** 0

**Q.** What about the “Blackgrass plant response rating” value (blackgrass; [8]) of the same molecule?
**A.** 60

**Q.** What about the “Blackgrass plant response rating” value (blackgrass; [9]) of the same molecule?
**A.** 90

**Q.** And the “Plant response rating, Blackgrass” value (blackgrass)?
**A.** 5

**Q.** And the “Plant response rating, Pigweed” value (pigweed [6]; [14])?
**A.** 100

**Q.** What about the “Pigweed plant response rating” value (pigweed [6]; 0 to 100 scale, 0 no effect, 100 complete control, approx. 10 days) of the same molecule?
**A.** 100
